Data from US10981902B2 (Merck Sharp & Dohme Corp., priority 2017, dated 2021).

Each compound was assayed against T1, human M4 muscarinic acetylcholine receptor (Homo sapiens, UniProt P08173) (assay: human FLIPR-based M4 PAM assay (calcium mobilization, CHO-K1 cells with human M4 receptor and Gαqi5)). Details: inflection point (IP) of dose response curve, acetylcholine added at 20% of maximum response, read-out: M4 FLIPPR Hu IP.
T1 construct: expressed in transfected cells; host or cells: CHO-K1
T1 sequence (P08173 1-479): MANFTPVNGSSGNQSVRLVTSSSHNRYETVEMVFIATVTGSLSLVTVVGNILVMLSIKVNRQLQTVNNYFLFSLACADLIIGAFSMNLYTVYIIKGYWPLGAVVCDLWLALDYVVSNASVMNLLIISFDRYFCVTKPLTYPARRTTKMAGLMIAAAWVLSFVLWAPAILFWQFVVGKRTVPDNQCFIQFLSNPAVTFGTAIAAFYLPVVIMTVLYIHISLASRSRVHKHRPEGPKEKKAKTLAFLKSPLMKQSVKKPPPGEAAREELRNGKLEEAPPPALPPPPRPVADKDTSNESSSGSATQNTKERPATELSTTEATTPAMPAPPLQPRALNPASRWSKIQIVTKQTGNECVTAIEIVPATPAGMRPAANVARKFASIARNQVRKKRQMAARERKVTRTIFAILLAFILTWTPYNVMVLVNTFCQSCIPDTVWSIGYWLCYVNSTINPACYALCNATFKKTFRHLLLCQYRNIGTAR
Assay type: cell-based
In short: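 CHO-K1 cells stably expressing human M4 and Gαqi5, dye-loaded ~1 h at 37 °C, read on FLIPR Tetra. Test compound added at increasing concentrations 4 min before acetylcholine at an EC20 concentration, sometimes followed by an EC70 addition. Dose-response curves fit to a 4-parameter logistic; result is the curve inflection point.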

**Q.** How did the EC50 turn out when `Cc1nc2cc(-c3nc(C#N)ccc3-c3cnc(CCC(C)(C)F)o3)ccc2n1C` [Example 117, 6-(1,2-dimethyl-1H-benzo[d]imidazol-5-yl)-5-(2-(3-fluoro-3-methylbutyl)oxazol-5-yl) picolinonitrile] was run?
**A.** 60 nM

**Q.** With `Cc1cn2ccc(-c3nc(C#N)ccc3-c3cnc(CC(C)(C)C(F)(F)F)o3)cc2n1` [Example 33, 6-(2-methylimidazol-[1,2-a]pyridin-7-yl)-5-(2-(3,3,3-trifluoro-2,2-dimethylpropyl)-oxazol-5-yl)picolino-nitrile] as the compound, how does the EC50 read?
**A.** 72 nM

**Q.** With `CN1Cc2ccc(-c3nc(C#N)ccc3-c3cnc(CC4(C)CCCC4)o3)cc2C1=O` [Example 6, 6-(2-methyl-3-oxo-isoindolin-5-yl)-5-(2-((1-methyl-cyclopentyl)methyl)-oxazol-5-yl)picolino-nitrile] as the compound, how does the EC50 read?
**A.** 14 nM

**Q.** Which EC50 does the source give for `CC(C)(C)Cc1ncc(-c2ccc(C(F)F)nc2-c2ccc3cccnc3c2)o1` [Example 13, 5-(6-(difluoro-methyl)-2-(quinolin-7-yl)pyridin-3-yl)-2-neopentyloxazole] here?
**A.** 128 nM

**Q.** For `N#Cc1ccc(-c2cnc(CC3(F)CCCC3)o2)c(-c2ccc3cccnc3c2)n1` [Example 72, 5-(2-((1-fluorocyclopentyl)methyl)oxazol-5-yl)-6-(quinolin-7-yl)picolinonitrile], which EC50 is on record?
**A.** 51 nM

**Q.** For `CC(C)(C)CCc1ncc(-c2ccc(C#N)nc2-c2ccn3ccnc3c2)o1` [Example 66, 5-(2-(3,3-dimethylbutyl)oxazol-5-yl)-6-(imidazo[1,2-a]pyridin-7-yl) picolinonitrile], which EC50 is on record?
**A.** 42 nM

**Q.** Which EC50 does the source give for `N#Cc1ccc(-c2cnc(CC3CCC3)o2)c(-c2ccc3cccnc3c2)n1` [Example 29, 5-(2-(cyclobutyl-methyl)oxazol-5-yl)-6-(quinolin-7-yl)-picolinonitrile] here?
**A.** 30 nM

**Q.** With `Cc1ccc(-c2cnc(CC3CCCC3)o2)c(-c2ccc3cccnc3c2)n1` [Example 1, 2-(cyclopentylmethyl)-5-(6-methyl-2-(quinolin-7-yl)pyridin-3-yl)oxazole] as the compound, how does the EC50 read?
**A.** 7 nM

**Q.** How did the EC50 turn out when `CN1Cc2ccc(-c3nc(F)ccc3-c3cnc(CC4(C)CCCC4)o3)cc2C1=O` [Example 8, 6-(6-fluoro-3-(2-((1-methylcyclo-pentyl)methyl)oxazol-5-yl)pyridin-2-yl)-2-methylisoindolin-1-one] was run?
**A.** 44 nM

**Q.** `N#Cc1ccc(-c2cnc(CC3(C(F)(F)F)CC3)o2)c(-c2ccn3ccnc3c2)n1` [Example 21, 6-(imidazo[1,2-a]-pyridin-7-yl)-5-(2-((1-(trifluoromethyl)-cyclopropyl)methyl)-oxazol-5-yl)picolino-nitrile] was tested. Which EC50 did it give?
**A.** 82 nM
